EC50 and Ki data for 27 compounds are collected here from US8518952B2, “6 substituted 2-heterocyclylamino pyrazine compounds as CHK-1 inhibitors” (Pfizer Inc., priority 2008, dated 2013).

One assay concerns Mia Paca-2 cells. Put plainly: Histone H3 (Ser10) phosphorylation ELISA, abrogation of camptothecin-induced G2 arrest (CHK-1 cellular assay). The conditions noted are these: camptothecin 8 hrs, then compound with nocodozole 16 hours. The format is cell-based. Here is the method: The Histone H3 phosphorylation ELISA assay detects cells entering mitosis and represents the primary in vitro cell-based assay used to measure the cellular potency of compounds in abrogating the G2 check point induced by DNA damage in HeLa cells or MiaPaCa cells. The candidate substances were assayed for potency in their ability to inhibit camptothecin-induced G2 arrest, as measured by an increase in Histone H3 phosphorylation on Ser10, a marker of entry into mitosis.
The PathScan Phospho-Histone H3 (Ser10) Sandwich ELISA kit was used (Cell Signaling, #7155) and the assay was performed according to manufacturer recommendations. Tissue culture plates were seeded with HeLa cells or MiaPaCa Cells and allowed to attach overnight. The cells were then treated with camptothecin to induce DNA damage for 8 hrs. Candidate substances or diluent were then added in the presence of nocodozole for 16 hours. Cells were then lysed with buffer from Assay Designs (#80-1114) supplemented with protease inhibitors and frozen overnight. The fresh whole cell lysates were then thawed and added to the ELISA plate with shaking for 3 hours. Between all subsequent steps plates were washed 4 times with PBST. Biotinylated phospho Histone H3 (ser10) detection antibody was added for 1 hour, followed by addition of horseradish peroxidase-linked streptavidin secondary antibody for 1 hour. Color development of the antibody was performed with addition of TMB substrate and incubation for 2 minutes on a plate shaker. Stop solution was added and plates were read with absorbance at 450 nm on a spectrophotometer. EC50 values were calculated by sigmoid curve fitting using a four-parameter analysis.
Under the “Ki” column, data entries in the format of “%” are percent inhibition data where no Ki data is available. Data entry under the “EC50” column with an * are data obtained using Mia Paca-2 cells rather than HeLa cells. Data is not available where noted as n/a.

A further assay concerns the target T1, CHK1 (kinase domain) (Homo sapiens, UniProt O14757).
T1 construct: a solution containing 1 nM of CHK1 (kinase domain)
T1 sequence (O14757 9-265 limits assumed): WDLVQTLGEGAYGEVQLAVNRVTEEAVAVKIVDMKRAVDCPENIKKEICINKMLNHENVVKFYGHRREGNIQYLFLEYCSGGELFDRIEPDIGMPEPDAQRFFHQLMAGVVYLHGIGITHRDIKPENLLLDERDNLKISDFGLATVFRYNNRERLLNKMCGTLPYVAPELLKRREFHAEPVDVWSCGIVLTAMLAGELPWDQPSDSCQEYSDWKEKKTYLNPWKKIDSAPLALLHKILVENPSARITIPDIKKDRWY
Briefly: CHK1 Ki determination, spectrophotometric coupled (pyruvate kinase/lactate dehydrogenase) assay. The conditions noted are these: CHK-1 kinase domain; 150 uM ATP, 125 uM Syntide 2. The format is biochemical. The procedure, abridged:
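The CHK1 kinase domain was pre-incubated with compound for 15 min, and the reaction was started with 125 uM Syntide 2 and 150 uM ATP. ADP formation was coupled through pyruvate kinase/lactate dehydrogenase to NADH oxidation, read as the A340 decrease. Kiapp was fitted with a tight-binding equation that accounts for enzyme concentration and ATP Km; some entries are % inhibition.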

The mark [1] stands for this setting: Homo sapiens, Mia Paca-2 cells (entries marked *).
Setting [2] is: Homo sapiens, MIA PaCa-2, Mia Paca-2 cells (entries marked *).

Where a name gives a salt, the structure may show the parent alone.

Consider `COC[C@@H]1C[C@@H](Nc2cncc(-c3cnc4cc(C)ccn34)n2)CN1` [Example 239, N-[(3R,5S)-5-(methoxymethyl)pyrrolidin-3-yl]-6-(7-methylimidazo[1,2-a]pyridin-3-yl)pyrazin-2-amine], for which the EC50 in the assay on Mia Paca-2 cells (setting [1]) came to 201 nM. Further, the Ki at CHK1 (kinase domain) was determined as 72.2 nM.

Compound `COc1cc2c(cn1)ncn2-c1cncc(N[C@@H]2CCCNC2)n1` [Example 17, 6-(6-methoxy-1H-imidazo[4,5-c]pyridin-1-yl)-N-[(3R)-piperidin-3-yl]pyrazin-2-amine] had an EC50 in the assay on Mia Paca-2 cells (setting [1]) of 59.5 nM. In addition, on CHK1 (kinase domain), the affinity, expressed as Ki, was 6.41 nM.

In the case of `COc1ccn2c(-c3cncc(N[C@H]4CNC[C@H]4C4CC4)n3)cnc2c1` [Example 211, N-[(3R,4R)-4-cyclopropylpyrrolidin-3-yl]-6-(7-methoxyimidazo[1,2-a]pyridin-3-yl)pyrazin-2-amine], in the assay on Mia Paca-2 cells (setting [2]), a half-maximal effect (EC50) was put at 4.59 nM. Further, the affinity at CHK1 (kinase domain), expressed as Ki, was 2.54 nM.

`C[C@@H]1CNC[C@@H]1Nc1cncc(-c2cnc3cc(Cl)ccn23)n1` [Example 129, 6-(7-chloroimidazo[1,2-a]pyridin-3-yl)-N-[(3R,4R)-4-methylpyrrolidin-3-yl]pyrazin-2-amine]: the EC50 with Mia Paca-2 cells (setting [1]) came to 10.8 nM. Further, the affinity on CHK1 (kinase domain), expressed as Ki, was 0.929 nM.

`CCOc1ccc2ncn(-c3cncc(N[C@H]4CN[C@H](COC)C4)n3)c2c1` [Example 268, 6-(6-ethoxy-1H-benzimidazol-1-yl)-N-[(3R,5S)-5-(methoxymethyl)pyrrolidin-3-yl]pyrazin-2-amine] had an EC50 in the assay on Mia Paca-2 cells (setting [1]) of 1480 nM. On CHK1 (kinase domain), the affinity corresponds to a Ki of 65.8 nM.

Consider `CCCOC[C@@H]1C[C@@H](Nc2cncc(-c3cnc4ccccn34)n2)CN1` [Example 192, 6-(imidazo[1,2-a]pyridin-3-yl)-N-[(3R,5S)-5-(propoxymethyl)pyrrolidin-3-yl]pyrazin-2-amine], for which the EC50 in the assay on Mia Paca-2 cells (setting [1]) was 187 nM. The compound also displayed a Ki on CHK1 (kinase domain) of 29.2 nM.

On to `O[C@H]1CNC[C@H](Nc2cncc(-c3cnc4ccccn34)n2)C1` [Example 203, (3R,5R)-5-{[6-(imidazo[1,2-a]pyridin-3-yl)pyrazin-2-yl]amino}piperidin-3-ol], for which the EC50 with Mia Paca-2 cells (setting [2]) turned out to be 134 nM. This compound displayed a Ki on CHK1 (kinase domain) of 4.09 nM.

In turn, `N#Cc1ccn2c(-c3cncc(N[C@@H]4CCCNC4)n3)cnc2c1` [Example 24, 3-{6-[(3R)-piperidin-3-ylamino]pyrazin-2-yl}imidazo[1,2-a]pyridine-7-carbonitrile] had an EC50 in the assay on Mia Paca-2 cells (setting [2]) of 178 nM. This compound displayed a Ki on CHK1 (kinase domain) of 6.38 nM.

In the assay with Mia Paca-2 cells (setting [2]), `CO[C@@H]1CNC[C@@H](Nc2cncc(-c3cnc4ccccn34)n2)C1` [Example 250, 6-(imidazo[1,2-a]pyridin-3-yl)-N-[(3S,5S)-5-methoxypiperidin-3-yl]pyrazin-2-amine] yielded a half-maximal effective concentration (EC50) of 1620 nM. On CHK1 (kinase domain), this compound yielded a Ki of 48.8 nM.

In the assay with Mia Paca-2 cells (setting [2]), `C[C@H]1NCCC[C@H]1Nc1cncc(-c2cnc3ccc(C(F)(F)F)cn23)n1` [Example 228, N-[(2R,3R)-2-methylpiperidin-3-yl]-6-[6-(trifluoromethyl)imidazo[1,2-a]pyridin-3-yl]pyrazin-2-amine] registered an EC50 of 24.5 nM. This compound also registered a Ki on CHK1 (kinase domain) of 6.5 nM.

Take `Cc1ccn2c(-c3cncc(N[C@H]4CN[C@H](COC(C)C)C4)n3)cnc2c1` [Example 240, 6-(7-methylimidazo[1,2-a]pyridin-3-yl)-N-{(3R,5S)-5-[(propan-2-yloxy)methyl]pyrrolidin-3-yl}pyrazin-2-amine]: in the assay with Mia Paca-2 cells (setting [1]), the EC50 was determined as 171 nM. Besides, the affinity on CHK1 (kinase domain) corresponds to a Ki of 61.6 nM.

In turn, `Fc1cccn2ncc(-c3cncc(N[C@@H]4CCCNC4)n3)c12` [Example 199, 6-(4-fluoropyrazolo[1,5-a]pyridin-3-yl)-N-[(3R)-piperidin-3-yl]pyrazin-2-amine] yielded an EC50 with Mia Paca-2 cells (setting [1]) of 106 nM. This compound also showed a Ki at CHK1 (kinase domain) of 7.82 nM.

In the assay with Mia Paca-2 cells (setting [1]), `CCOc1ccc2c(c1)ncn2-c1cncc(N[C@@H]2CCCNC2)n1` [Example 214, 6-(5-ethoxy-1H-benzimidazol-1-yl)-N-[(3R)-piperidin-3-yl]pyrazin-2-amine] yielded an EC50 of 12.2 nM. Moreover, affinity at CHK1 (kinase domain) was put at a Ki of 0.935 nM.

In the assay with Mia Paca-2 cells (setting [1]), `Clc1cc2ncn(-c3cncc(N[C@@H]4CCCNC4)n3)c2cn1` [Example 254, 6-(6-chloro-3H-imidazo[4,5-c]pyridin-3-yl)-N-[(3R)-piperidin-3-yl]pyrazin-2-amine] registered an EC50 of 542 nM. Further, the Ki at CHK1 (kinase domain) was determined as 28.3 nM.

With `COc1ccc2ncn(-c3cncc(N[C@@H]4CCCNC4)n3)c2c1` [Example 142, 6-(6-methoxy-1H-benzimidazol-1-yl)-N-[(3R)-piperidin-3-yl]pyrazin-2-amine], a half-maximal response in the assay on Mia Paca-2 cells (setting [1]) (EC50) required 125 nM. Also, at CHK1 (kinase domain), the affinity, expressed as Ki, was 1.49 nM.

As to `CC1(COc2ccn3c(-c4cncc(N[C@@H]5CCCNC5)n4)cnc3c2)COC1` [Example 155, 6-{7-[(3-methyloxetan-3-yl)methoxy]imidazo[1,2-a]pyridin-3-yl}-N-[(3R)-piperidin-3-yl]pyrazin-2-amine], the EC50 in the assay on Mia Paca-2 cells (setting [1]) came to 46.1 nM. Also, the Ki at CHK1 (kinase domain) was 1 nM.

In the case of `N#Cc1ncc(N[C@@H]2CCCNC2)nc1-c1cnc2ccccn12` [Example 20, 3-(imidazo[1,2-a]pyridin-3-yl)-5-[(3R)-piperidin-3-ylamino]pyrazine-2-carbonitrile], it took 10000 nM to reach a half-maximal effect with Mia Paca-2 cells (setting [2]) (EC50). For the same compound, affinity on CHK1 (kinase domain) was put at a Ki of 930 nM.

Turning to `COc1ccn2c(-c3cncc(N[C@H]4C5CCN(CC5)[C@H]4C)n3)cnc2c1` [Example 265, (2S,3S)-N-[6-(7-methoxyimidazo[1,2-a]pyridin-3-yl)pyrazin-2-yl]-2-methyl-1-azabicyclo[2.2.2]octan-3-amine], the EC50 in the assay on Mia Paca-2 cells (setting [1]) came out at 244 nM. On CHK1 (kinase domain), this compound yielded a Ki of 5.37 nM.

`CC(C)(O)c1ccc2ncc(-c3cncc(N[C@@H]4CCCNC4)n3)n2c1` [Example 232, 2-(3-{6-[(3R)-piperidin-3-ylamino]pyrazin-2-yl}imidazo[1,2-a]pyridin-6-yl)propan-2-ol] gave an EC50 with Mia Paca-2 cells (setting [2]) of 100 nM. At CHK1 (kinase domain), the affinity corresponds to a Ki of 2.6 nM.

As for `CO[C@H]1CCNC[C@@H]1Nc1cncc(-c2cnc3ccccn23)n1` [Example 29, 6-imidazo[1,2-a]pyridin-3-yl-N-[(3S,4S)-4-methoxypiperidin-3-yl]pyrazin-2-amine], a half-maximal effect in the assay on Mia Paca-2 cells (Mia Paca-2 cells (entries marked *)) (EC50) was put at 86.8 nM. The compound also gave a Ki at CHK1 (kinase domain) of 5.51 nM.

In the assay with Mia Paca-2 cells (setting [1]), `Clc1cc2c(cn1)ncn2-c1cncc(N[C@@H]2CCNC2)n1` [Example 271, 6-(6-chloro-1H-imidazo[4,5-c]pyridin-1-yl)-N-[(3R)-pyrrolidin-3-yl]pyrazin-2-amine] displayed an EC50 of 4770 nM. This compound had a Ki at CHK1 (kinase domain) of 118 nM.

With `Fc1ccn2c(-c3cncc(N[C@@H]4CCCNC4)n3)cnc2c1` [Example 235, 6-(7-fluoroimidazo[1,2-a]pyridin-3-yl)-N-[(3R)-piperidin-3-yl]pyrazin-2-amine], the midpoint of the response in the assay on Mia Paca-2 cells (setting [2]), the EC50, lay at 67.9 nM. The compound also showed a Ki at CHK1 (kinase domain) of 6.8 nM.

For `c1ccn2c(-c3cncc(N[C@H]4CNC[C@H]4C4CC4)n3)cnc2c1` [Example 197, N-[(3R,4R)-4-cyclopropylpyrrolidin-3-yl]-6-(imidazo[1,2-a]pyridin-3-yl)pyrazin-2-amine], in the assay on Mia Paca-2 cells (setting [1]), the EC50 is 4.82 nM. On CHK1 (kinase domain), the Ki is 3.05 nM.

In the assay on Mia Paca-2 cells (setting [1]), `COC[C@@H]1C[C@@H](Nc2cncc(-c3cnc4cc(Cl)ccn34)n2)CN1` [Example 244, 6-(7-chloroimidazo[1,2-a]pyridin-3-yl)-N-[(3R,5S)-5-(methoxymethyl)pyrrolidin-3-yl]pyrazin-2-amine] displayed an EC50 of 60.3 nM. In addition, the inhibition constant (Ki) at CHK1 (kinase domain) was found to be 15.9 nM.

Compound `COc1ccc2ncc(-c3cncc(N[C@@H]4CCCNC4)n3)n2c1` [Example 7, 6-(6-Methoxyimidazo[1,2-a]pyridin-3-yl)-N-[(3R)-piperidin-3-yl]pyrazin-2-amine] displayed an EC50 in the assay on Mia Paca-2 cells (setting [1]) of 16.7 nM. Moreover, the Ki at CHK1 (kinase domain) stood at 1.65 nM.

For the compound `C[C@@H]1CNC[C@@H]1Nc1cncc(-c2cnn3ccncc23)n1` [Example 253, N-[(3R,4R)-4-methylpyrrolidin-3-yl]-6-(pyrazolo[1,5-a]pyrazin-3-yl)pyrazin-2-amine, acetate salt], the EC50 in the assay with Mia Paca-2 cells (setting [1]) came to 1030 nM. The compound also registered a Ki on CHK1 (kinase domain) of 85.6 nM.

For `CCOc1cc2ncn(-c3cncc(N[C@@H]4CCCNC4)n3)c2cn1` [Example 258, 6-(6-ethoxy-3H-imidazo[4,5-c]pyridin-3-yl)-N-[(3R)-piperidin-3-yl]pyrazin-2-amine], the EC50 with Mia Paca-2 cells (setting [1]) was 98.4 nM. Also, at CHK1 (kinase domain), the Ki worked out at 4.38 nM.

For orientation: EC50 means the concentration giving half of the maximal effect. Read a low EC50 as greater potency. One may read the Ki as the equilibrium dissociation constant of an inhibitor or competing ligand from its target. Read a low Ki as a stronger hold on the target.
